Here are results for 29 compounds from US10988478B1, “Pyrazolo[1,5a]pyrimidine derivatives as IRAK4 modulators” (Genentech, Inc., priority 2015, dated 2021).

Each structure is given as a SMILES string.

Chain of human IRAK4 (Q9NWZ3 whole entry, the tested form may be a part): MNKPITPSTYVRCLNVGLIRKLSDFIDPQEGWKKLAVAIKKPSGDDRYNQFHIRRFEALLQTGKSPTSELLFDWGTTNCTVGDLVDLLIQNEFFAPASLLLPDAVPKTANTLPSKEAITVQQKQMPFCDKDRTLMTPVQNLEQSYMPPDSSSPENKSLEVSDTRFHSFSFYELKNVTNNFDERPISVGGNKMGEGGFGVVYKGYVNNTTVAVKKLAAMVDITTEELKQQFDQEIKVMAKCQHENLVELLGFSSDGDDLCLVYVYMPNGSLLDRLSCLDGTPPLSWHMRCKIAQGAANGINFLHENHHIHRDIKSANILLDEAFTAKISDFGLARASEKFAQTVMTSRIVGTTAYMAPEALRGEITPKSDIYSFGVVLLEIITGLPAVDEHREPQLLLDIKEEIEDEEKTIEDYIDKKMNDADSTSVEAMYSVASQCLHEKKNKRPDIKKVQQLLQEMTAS

For the assay, the target named is human IRAK4 (Homo sapiens (Human), UniProt Q9NWZ3). The assay is described as follows: IRAK4 kinase inhibition, Transcreener fluorescence polarization ADP assay. The assay is classed as biochemical. The conditions noted are these: recombinant full-length His6-IRAK4; 125 uM ATP; 90 min; Ki computed using ATP Km 642 uM. As for the experimental part:
Compounds were assayed for inhibition of human IRAK4 and IRAK1 catalytic activity using recombinant enzyme produced from insect cells. Full-length IRAK4 protein, carrying an N-terminal His6-Tag, was obtained from Life Technologies (Carlsbad, Calif., USA). The IRAK1 construct was produced internally and was comprised of IRAK1 residues Arg194 to Ser712, preceded by an NH2-terminal His6 tag and the coding sequence for glutathione-S-transferase.
On the technique in general: Polarisation of emitted light reports the rotation of a fluorescent probe.
As a reminder, the Ki is the equilibrium dissociation constant of an inhibitor or competing ligand from its target. `O=C(Nc1cc2c(cc1N1CCOCC1)C(=O)N(CC1(CO)COC1)C2)c1cnn2cccnc12` [Example 268, N-[2-[[3-(Hydroxymethyl)oxetan-3-yl]methyl]-6-morpholino-1-oxo-isoindolin-5-yl]pyrazolo[1,5-a]pyrimidine-3-carboxamide]: the Ki came to 75 nM.

`CC(C)(O)[C@H](F)CN1Cc2cc(NC(=O)c3cnn4cc(Br)cnc34)c(N3CCOCC3)cc2C1=O` [Example 269, 6-bromo-N-[2-[(2R)-2-fluoro-3-hydroxy-3-methyl-butyl]-6-morpholino-1-oxo-isoindolin-5-yl]pyrazolo[1,5-a]pyrimidine-3-carboxamide]: the Ki turned out to be 1.5 nM. With `CC(C)(O)C(F)(F)CN1Cc2cc(NC(=O)c3cnn4cccnc34)c(N3CCOCC3)cc2C1=O` [Example 270, N-[2-(2,2-Difluoro-3-hydroxy-3-methyl-butyl)-6-morpholino-1-oxo-isoindolin-5-yl]pyrazolo[1,5-a]pyrimidine-3-carboxamide] the figure was 9.7 nM; with `CC(C)(O)[C@H](F)CN1Cc2cc(NC(=O)c3cnn4cc(Cl)cnc34)c(N3CCOCC3)cc2C1=O` [Example 271, 6-Chloro-N-[2-[(2R)-2-fluoro-3-hydroxy-3-methyl-butyl]-6-morpholino-1-oxo-isoindolin-5-yl]pyrazolo[1,5-a]pyrimidine-3-carboxamide], 1.7 nM. With `CC(C)N1Cc2cc(NC(=O)c3cnn4cccnc34)c(N3CCN(CC(N)=O)CC3)cc2C1=O` [Example 272, N-[6-[4-(2-Amino-2-oxo-ethyl)piperazin-1-yl]-2-isopropyl-1-oxo-isoindolin-5-yl]pyrazolo[1,5-a]pyrimidine-3-carboxamide] the figure was 4 nM. The figure for `O=C(Nc1cc2c(cc1N1CCOCC1)C(=O)N(CC(F)(F)CO)C2)c1cnn2cccnc12` [Example 273, N-[2-(2,2-Difluoro-3-hydroxy-propyl)-6-morpholino-1-oxo-isoindolin-5-yl]pyrazolo[1,5-a]pyrimidine-3-carboxamide] is 37 nM; for `CC(C)(O)[C@H](F)CN1Cc2cc(NC(=O)c3cnn4cccnc34)c(N3CCC(C#N)CC3)cc2C1=O` [Example 274, (R)-N-(6-(4-cyanopiperidin-1-yl)-2-(2-fluoro-3-hydroxy-3-methylbutyl)-1-oxoisoindolin-5-yl)pyrazolo[1,5-a]pyrimidine-3-carboxamide] it is 1.4 nM. Consider `CC(C)(O)CCN1Cc2cc(NC(=O)c3cnn4cccnc34)c(N3CCN(CC(F)F)CC3)cc2C1=O` [Example 279, N-[6-[4-(2,2-Difluoroethyl)piperazin-1-yl]-2-(3-hydroxy-3-methyl-butyl)-1-oxo-isoindolin-5-yl]pyrazolo[1,5-a]pyrimidine-3-carboxamide], for which the inhibitory constant (Ki) worked out at 1.8 nM.

On to `CC(C)(O)CCN1Cc2cc(NC(=O)c3cnn4cccnc34)c(N3CCN(CC(N)=O)CC3)cc2C1=O` [Example 280, N-[6-[4-(2-Amino-2-oxo-ethyl)piperazin-1-yl]-2-(3-hydroxy-3-methyl-butyl)-1-oxo-isoindolin-5-yl]pyrazolo[1,5-a]pyrimidine-3-carboxamide], for which the Ki was determined as 2 nM. Consider `CN1CCC(N2Cc3cc(NC(=O)c4cnn5cccnc45)c(N4CCN(CC(N)=O)CC4)cc3C2=O)CC1` [Example 281, N-[6-[4-(2-Amino-2-oxo-ethyl)piperazin-1-yl]-2-(1-methyl-4-piperidyl)-1-oxo-isoindolin-5-yl]pyrazolo[1,5-a]pyrimidine-3-carboxamide], for which the inhibition constant Ki was found to be 2.4 nM. Regarding `Cc1cnc2c(C(=O)Nc3cc4c(cc3N3CCN(CC(F)F)CC3)C(=O)N(C[C@@H](F)C(C)(C)O)C4)cnn2c1` [Example 284, N-[6-[4-(2,2-Difluoroethyl)piperazin-1-yl]-2-[(2R)-2-fluoro-3-hydroxy-3-methyl-butyl]-1-oxo-isoindolin-5-yl]-6-methyl-pyrazolo[1,5-a]pyrimidine-3-carboxamide], the inhibitory constant (Ki) was 2 nM. The figure for `CC(C)(O)[C@H](F)CN1Cc2cc(NC(=O)c3cnn4cc(Cl)cnc34)c(N3CCN(CC(F)F)CC3)cc2C1=O` [Example 285, 6-Chloro-N-[6-[4-(2,2-difluoroethyl)piperazin-1-yl]-2-[(2R)-2-fluoro-3-hydroxy-3-methyl-butyl]-1-oxo-isoindolin-5-yl]pyrazolo[1,5-a]pyrimidine-3-carboxamide] is 2 nM; for `CC(C)(O)[C@H](F)CN1Cc2cc(NC(=O)c3cnn4cc(C(N)=O)cnc34)c(N3CCOCC3)cc2C1=O` [Example 286, N3-[2-[(2R)-2-Fluoro-3-hydroxy-3-methyl-butyl]-6-morpholino-1-oxo-isoindolin-5-yl]pyrazolo[1,5-a]pyrimidine-3,6-dicarboxamide] it is 2 nM; for `CC(C)N1Cc2cc(NC(=O)c3cnn4cccnc34)c(N3CCOCC3)cc2S1(=O)=O` [Example 287, N-(2-Isopropyl-6-morpholino-1,1-dioxo-3H-1,2-benzothiazol-5-yl)pyrazolo[1,5-a] pyrimidine-3-carboxamide] it is 26 nM. With `CC(C)(O)CN1Cc2cc(NC(=O)c3cnn4cccnc34)c(N3CCOCC3)cc2S1(=O)=O` [Example 288, N-[2-(2-Hydroxy-2-methyl-propyl)-6-morpholino-1,1-dioxo-3H-1,2-benzothiazol-5-yl]pyrazolo[1,5-a]pyrimidine-3-carboxamide] the figure was 63 nM; with `CC(C)(O)[C@H](F)CN1Cc2cc(NC(=O)c3cnn4cccnc34)c(N3CCOCC3)cc2S1(=O)=O` [Example 289, N-[2-[(2R)-2-Fluoro-3-hydroxy-3-methyl-butyl]-6-morpholino-1,1-dioxo-3H-1,2-benzothiazol-5-yl]pyrazolo[1,5-a]pyrimidine-3-carboxamide], 8 nM. With `CCOP(=O)(OCC)OCC1(C)Cc2cc(NC(=O)c3cnn4cccnc34)c(N3CCOCC3)cc2O1` (centres unmarked) [Example 290, Diethyl ((2-methyl-6-morpholino-5-(pyrazolo[1,5-a]pyrimidine-3-carboxamido)-2,3-dihydrobenzofuran-2-yl)methyl) phosphate] the figure was 180 nM; with `CC1(C)Cc2cc(NC(=O)c3cnn4cccnc34)c(OC[C@H]3CCCN3)cc2O1` [Example 291, (R)—N-(2,2-Dimethyl-6-(pyrrolidin-2-ylmethoxy)-2,3-dihydrobenzofuran-5-yl)pyrazolo[1,5-a]pyrimidine-3-carboxamide], 380 nM; with `CC1(C)Cc2cc(NC(=O)c3cnn4cccnc34)c(OC[C@H]3CCCN3CC(F)F)cc2O1` [Example 292, (R)—N-(6-((1-(2,2-Difluoroethyl)pyrrolidin-2-yl)methoxy)-2,2-dimethyl-2,3-dihydrobenzofuran-5-yl)pyrazolo[1,5-a]pyrimidine-3-carboxamide], 760 nM. For `CC1(C)Cc2cc(NC(=O)c3cnn4cccnc34)c(OC[C@@H]3C[C@@H]4C[C@@H]4N3CC(F)F)cc2O1` [Example 293, N-(6-(((1S,3S,5S)-2-(2,2-difluoroethyl)-2-azabicyclo[3.1.0]hexan-3-yl)methoxy)-2,2-dimethyl-2,3-dihydrobenzofuran-5-yl)pyrazolo[1,5-a]pyrimidine-3-carboxamide], the Ki came to 690 nM. With `CC1(C)Cc2cc(NC(=O)c3cnn4cccnc34)c(OC[C@@H]3[C@H]4CN(CC(F)F)C[C@@H]34)cc2O1` [Example 294, N-(6-(((1R,5S,6R)-3-(2,2-difluoroethyl)-3-azabicyclo[3.1.0]hexan-6-yl)methoxy)-2,2-dimethyl-2,3-dihydrobenzofuran-5-yl)pyrazolo[1,5-a]pyrimidine-3-carboxamide] the figure was 14 nM; with `CC1(C)Cc2cc(NC(=O)c3cnn4cccnc34)c(OC[C@H]3[C@@H]4CNC[C@@H]43)cc2O1` [Example 295, N-(6-(((1R,5S,6R)-3-azabicyclo[3.1.0]hexan-6-yl)methoxy)-2,2-dimethyl-2,3-dihydrobenzofuran-5-yl)pyrazolo[1,5-a]pyrimidine-3-carboxamide], 8.2 nM; with `CC1(C)Cc2cc(NC(=O)c3cnn4cccnc34)c(OCC3CCOC3)cc2O1` (stereo not drawn) [Example 296, N-(2,2-Dimethyl-6-((tetrahydrofuran-3-yl)methoxy)-2,3-dihydrobenzofuran-5-yl)pyrazolo[1,5-α]pyrimidine-3-carboxamide], 18 nM. With `CC1(C)Cc2cc(NC(=O)c3cnn4cccnc34)c(OCc3cccnc3)cc2O1` [Example 297, N-(2,2-Dimethyl-6-(pyridin-3-ylmethoxy)-2,3-dihydrobenzofuran-5-yl)pyrazolo[1,5-α]pyrimidine-3-carboxamide] the figure was 23 nM; with `CC1(C)Cc2cc(NC(=O)c3cnn4cccnc34)c(OCC3CC3)cc2O1` [Example 298, N-(6-(Cyclopropylmethoxy)-2,2-dimethyl-2,3-dihydrobenzofuran-5-yl)pyrazolo[1,5-α]pyrimidine-3-carboxamide], 7 nM; with `CC1(COc2cc3c(cc2NC(=O)c2cnn4cccnc24)CC(C)(C)O3)COC1` [Example 299, N-(2,2-Dimethyl-6-((3-methyloxetan-3-yl)methoxy)-2,3-dihydrobenzofuran-5-yl)pyrazolo[1,5-α]pyrimidine-3-carboxamide], 31 nM. The figure for `Cn1cc(COc2cc3c(cc2NC(=O)c2cnn4cccnc24)CC(C)(C)O3)cn1` [Example 300, N-(2,2-Dimethyl-6-((1-methyl-1H-pyrazol-4-yl)methoxy)-2,3-dihydrobenzofuran-5-yl)pyrazolo[1,5-α]pyrimidine-3-carboxamide] is 7 nM; for `CC1(C)Cc2cc(NC(=O)c3cnn4cccnc34)c(OCc3ccncc3)cc2O1` [Example 301, N-(2,2-Dimethyl-6-(pyridin-4-ylmethoxy)-2,3-dihydrobenzofuran-5-yl)pyrazolo[1,5-α]pyrimidine-3-carboxamide] it is 17 nM. Take `CC1(C)Cc2cc(NC(=O)c3cnn4cccnc34)c(OCC(F)F)cc2O1` [Example 302, N-(6-(2,2-Difluoroethoxy)-2,2-dimethyl-2,3-dihydrobenzofuran-5-yl)pyrazolo[1,5-α]pyrimidine-3-carboxamide]: the Ki is 11 nM.
